Results from the supplement of paper PMC10307832.

Assays:
Test in all cases: relative viability (nuclei count vs DMSO), 5 days (fraction); higher = more cells survive
[1] = compound: NS(=O)(=O)OC[C@@H]1C[C@@H](n2ccc3c(N[C@H]4CCc5ccccc54)ncnc32)C[C@@H]1O [MLN4924] + Cc1cc(Nc2cc(N3CCN(C)CC3)nc(Sc3ccc(NC(=O)C4CC4)cc3)n2)n[nH]1 [Tozasertib] (partner 0.1 µM)
Outline: (§1)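 A single step with final 0.05% Triton X-100, 1% formaldehyde and 1 ug/ml Hoechst fixed the cells and stained nuclei 5 days after treatment. Lung cancer cell lines in 1536-well plates had been treated by pin tool the day after seeding with one drug alone or a fixed anchor-drug dose plus five library-drug doses (not always all listed) in √10 steps, and nuclei were counted on 4× images. Relative viability is the ratio of nuclei in treated wells to nuclei in vehicle wells, taken as the median of duplicate plates.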

[2] = compound: C1CC(C1)(C(=O)O)C(=O)O.[NH2-].[NH2-].[Pt+2] [Carboplatin] + C[C@]1(O)C[C@@H](c2nc(-c3ccc4ccc(-c5ccccc5)nc4c3)c3c(N)nccn32)C1 [Linsitinib] (partner 1 µM)
Outline: as §1

[3] = compound: C1CC(C1)(C(=O)O)C(=O)O.[NH2-].[NH2-].[Pt+2] [Carboplatin] + COc1cc2c(Oc3ccc(NC(=O)C4(C(=O)Nc5ccc(F)cc5)CC4)cc3F)ccnc2cc1OCCCN1CCOCC1 [Foretinib] (partner 0.25 µM)
Outline: as §1

[4] = compound: NS(=O)(=O)OC[C@@H]1C[C@@H](n2ccc3c(N[C@H]4CCc5ccccc54)ncnc32)C[C@@H]1O [MLN4924] + C[C@]1(O)C[C@@H](c2nc(-c3ccc4ccc(-c5ccccc5)nc4c3)c3c(N)nccn32)C1 [Linsitinib] (partner 1 µM)
Outline: as §1

Row | Cell Line | relative viability ([1]; first compound 0.04 µM) | relative viability ([1]; first compound 0.1265 µM) | relative viability ([1]; first compound 0.4 µM) | relative viability ([1]; first compound 1.265 µM) | relative viability ([1]; first compound 4 µM) | relative viability ([2]; first compound 0.08 µM) | relative viability ([2]; first compound 0.253 µM) | relative viability ([2]; first compound 0.8 µM) | relative viability ([2]; first compound 2.53 µM) | relative viability ([2]; first compound 8 µM) | relative viability ([3]; first compound 0.08 µM) | relative viability ([3]; first compound 0.253 µM) | relative viability ([3]; first compound 0.8 µM) | relative viability ([3]; first compound 2.53 µM) | relative viability ([3]; first compound 8 µM) | relative viability ([4]; first compound 0.04 µM) | relative viability ([4]; first compound 0.1265 µM) | relative viability ([4]; first compound 0.4 µM) | relative viability ([4]; first compound 1.265 µM) | relative viability ([4]; first compound 4 µM)
1 | LU99A | 0.251 | 0.244 | 0.224 | 0.178 | 0.165 | 0.621 | 0.583 | 0.508 | 0.464 | 0.417 | 0.794 | 0.749 | 0.752 | 0.713 | 0.522 | 0.469 | 0.332 | 0.254 | 0.147 | 0.177
2 | LXF-289 | 0.194 | 0.162 | 0.155 | 0.083 | 0.0804 | 0.992 | 1.02 | 0.912 | 0.939 | 0.926 | 1.02 | 0.996 | 0.992 | 0.918 | 0.992 | 0.785 | 0.645 | 0.417 | 0.224 | 0.143
3 | NCI-H23 | 0.367 | 0.388 | 0.235 | 0.176 | 0.141 | 0.536 | 0.716 | 0.542 | 0.563 | 0.492 | 1.02 | 1.01 | 0.886 | 0.846 | 0.826 | 0.632 | 0.405 | 0.203 | 0.135 | 0.149
4 | NCI-H322M | 0.479 | 0.537 | 0.434 | 0.26 | 0.325 | 0.915 | 0.956 | 0.785 | 0.812 | 0.799 | 1.12 | 0.943 | 0.895 | 0.861 | 0.77 | 0.86 | 0.908 | 0.913 | 0.262 | 0.328
5 | NCI-H358 | 0.108 | 0.0992 | 0.0886 | 0.0878 | 0.0989 | 0.826 | 0.806 | 0.796 | 0.772 | 0.751 | 0.736 | 0.783 | 0.721 | 0.764 | 0.651 | 0.918 | 1.06 | 0.304 | 0.183 | 0.181
6 | NCI-H441 | 0.674 | 0.444 | 0.329 | 0.236 | 0.22 | 0.608 | 0.506 | 0.662 | 0.544 | 0.573 | 0.929 | 0.971 | 0.744 | 1.01 | 0.915 | 0.47 | 0.374 | 0.205 | 0.111 | 0.159
7 | NCI-H460 | 0.464 | 0.484 | 0.421 | 0.228 | 0.0266 | 0.907 | 0.803 | 0.739 | 0.445 | 0.184 | 0.98 | 1.03 | 0.968 | 0.716 | 0.322 | 0.838 | 0.733 | 0.113 | 0.0176 | 0.0132
8 | NCI-H520 | 0.461 | 0.513 | 0.425 | 0.204 | 0.25 | 0.997 | 1.09 | 1.02 | 0.943 | 0.784 | 0.905 | 0.815 | 0.795 | 0.831 | 0.575 | 0.587 | 0.413 | 0.312 | 0.239 | 0.185
9 | NCI-H596 | 0.819 | 0.987 |  | 0.514 | 0.528 | 1.15 | 1.09 | 0.904 | 0.809 | 0.771 | 0.828 | 1.01 | 0.707 | 0.59 | 0.431 | 1.2 | 1.3 | 0.744 | 0.853 | 0.304
10 | NCI-H647 | 0.281 | 0.181 | 0.149 | 0.0334 | 0.0369 | 1.41 | 1.24 | 1.11 | 0.932 | 0.503 | 1.15 | 1.24 | 1.13 | 1.17 | 0.84 | 0.709 | 0.499 | 0.137 | 0.0815 | 0.0619
11 | NCI-H650 | 0.584 | 0.356 | 0.307 | 0.161 | 0.187 | 1.15 | 0.859 | 0.982 | 0.848 | 0.503 | 1.01 | 1.14 | 0.941 | 0.91 | 0.614 | 0.611 | 0.604 | 0.266 | 0.186 | 0.174
12 | NCI-H661 | 0.343 | 0.329 | 0.359 | 0.338 | 0.375 | 0.555 | 0.705 | 0.529 | 0.44 | 0.541 | 1.01 | 0.982 | 0.984 | 1 | 0.842 | 0.636 | 0.757 | 0.576 | 0.258 | 0.247
13 | NCI-H727 | 0.677 | 0.462 | 0.432 | 0.335 | 0.328 | 0.456 | 0.298 | 0.314 | 0.347 | 0.277 | 1.1 | 0.967 | 0.9 | 0.792 | 0.637 | 0.402 | 0.169 | 0.234 | 0.21 | 0.24
14 | NCI-H838 | 0.275 | 0.288 | 0.204 | 0.123 | 0.118 | 1.03 | 1.09 | 0.961 | 0.958 | 1 | 1.16 | 1.06 | 0.934 | 0.931 | 0.669 | 0.675 | 0.283 | 0.208 | 0.161 | 0.149
15 | NCI-H1355 | 0.549 | 0.553 | 0.576 | 0.3 | 0.204 | 0.971 | 0.805 | 0.838 | 0.869 | 0.727 | 0.979 | 0.994 | 1.02 | 0.956 | 0.895 | 0.875 | 0.704 | 0.789 | 0.207 | 0.211
16 | NCI-H1395 | 0.72 | 0.609 | 0.475 | 0.397 | 0.337 | 1.02 | 1.05 | 0.82 | 0.751 | 0.576 | 1.03 | 1.03 | 0.805 | 0.709 | 0.726 | 0.991 | 0.771 | 0.605 | 0.384 | 0.377
17 | NCI-H1437 | 0.298 | 0.254 | 0.176 | 0.195 | 0.133 | 1.06 | 1.02 | 0.95 | 0.859 | 0.876 | 1.28 | 1.34 | 1.22 | 1.2 | 1.08 | 0.959 | 0.828 | 0.466 | 0.221 | 0.103
18 | NCI-H1651 | 0.759 | 0.782 | 0.524 | 0.321 | 0.133 | 0.918 | 1.06 | 0.82 | 0.9 | 0.509 | 0.791 | 0.827 | 0.822 | 0.795 | 0.413 | 1.13 | 0.973 | 0.431 | 0.334 | 0.135
19 | NCI-H1666 | 0.56 | 0.635 | 0.447 | 0.266 | 0.27 | 0.823 | 0.879 | 0.747 | 0.794 | 0.458 | 0.977 | 0.918 | 0.823 | 0.832 | 0.607 | 1.01 | 0.504 | 0.263 | 0.225 | 0.252
20 | NCI-H1734 | 0.261 | 0.267 | 0.154 | 0.12 | 0.0994 | 0.823 | 0.904 | 0.909 | 0.876 | 0.851 | 0.777 | 0.877 | 0.827 | 0.954 | 0.812 | 1.01 | 1.09 | 0.519 | 0.178 | 0.155
21 | NCI-H1755 | 0.529 | 0.411 | 0.291 | 0.208 | 0.209 | 1.12 | 0.947 | 1.03 | 1.02 | 0.952 | 1.01 | 0.897 | 0.899 | 0.929 | 0.86 | 1.07 | 0.701 | 0.447 | 0.159 | 0.2
22 | NCI-H1793 | 0.337 | 0.356 | 0.368 | 0.252 | 0.168 | 1.04 | 1.1 | 0.675 | 0.848 | 0.839 | 0.939 | 0.773 | 0.882 | 0.718 | 0.724 | 1.12 | 0.857 | 0.845 | 0.327 | 0.168
23 | NCI-H1915 | 0.399 | 0.362 | 0.395 | 0.212 | 0.159 | 1.07 | 1.11 | 1.04 | 1.01 | 0.723 | 1.12 | 1.13 | 1.04 | 1.05 | 0.81 | 1.05 | 0.82 | 0.898 | 0.213 | 0.222
24 | NCI-H1944 | 0.233 | 0.226 | 0.235 | 0.159 | 0.117 | 1.24 | 1.09 | 1.16 | 1.29 | 0.898 | 0.971 | 0.855 | 0.854 | 0.789 | 0.601 | 1.38 | 1.19 | 1.02 | 0.257 | 0.37
25 | NCI-H1975 | 0.675 | 0.836 | 0.796 | 0.451 | 0.241 | 0.894 | 0.986 | 0.999 | 1.02 | 0.903 | 1.08 | 1.02 | 0.782 | 0.88 | 0.946 | 0.991 | 1.17 | 0.825 | 0.234 | 0.226
26 | NCI-H1993 | 0.489 | 0.478 | 0.51 | 0.449 | 0.498 | 0.773 | 0.798 | 0.779 | 0.817 | 0.701 | 1.02 | 0.903 | 0.763 | 0.658 | 0.744 | 0.937 | 0.719 | 0.68 | 0.632 | 0.584
